The text below walks through data of patent US6699868B2, “Pyridazinyl phenyl hydrazones useful against congestive heart failure” (Orion Corporation, priority 2000, dated 2004).

For the compound `CC1CC(=O)NN=C1c1ccc(NN=Cc2c([N+](=O)[O-])cccc2[N+](=O)[O-])cc1` (stereo not drawn), the melting point was in the range of 216 to 218 °C.

On to `CC1CC(=O)NN=C1c1ccc(NN=Cc2ccc([N+](=O)[O-])cc2[N+](=O)[O-])cc1` (stereo not drawn), for which the melting point is 278 to 280 °C.

`CCOC(=O)c1c(O)ccc(C(=NN)c2ccc(C3=NNC(=O)CC3C)cc2)c1O` (stereo not drawn) [Example 3, 2,6-Dihydroxy-3-{[4-(4-methyl-6-oxo-1,4,5,6-tetrahydro-pyridazin-3-yl)-phenyl]-hydrazonomethyl}-benzoic acid Ethyl Ester] showed a melting point of 203 to 208 °C.

As to `CC1CC(=O)NN=C1c1ccc(NN=Cc2cc([N+](=O)[O-])ccc2O)cc1` (stereo not drawn) [Example 5, 6-{4-[N′-(2-Hydroxy-5-nitro-benzylidene)-hydrazino]-phenyl}-5-methyl-4,5-dihydro-2H-pyridazin-3-one], the melting point lay within 299 to 300 °C.

The compound `CC1CC(=O)NN=C1c1ccc(NN=Cc2cccc(O)c2O)cc1` (stereo not drawn) [Example 7, 6-{4-[N′-(2,3-Dihydroxy-benzylidene)-hydrazino]-phenyl}-5-methyl-4,5-dihydro-2H-pyridazin-3-one] showed a melting point of 245 to 247 °C.

Take `CC1CC(=O)NN=C1c1ccc(NN=Cc2cc(O)ccc2O)cc1` (stereo not drawn) [Example 8, 6-{4-[N′-(2,5-Dihydroxy-benzylidene)-hydrazino]-phenyl}-5-methyl-4,5-dihydro-2H-pyridazin-3-one]: the melting point was in the range of 317 to 320 °C.

In the case of `CC1CC(=O)NN=C1c1ccc(NN=Cc2ccc(O)c(O)c2[N+](=O)[O-])cc1` (stereo not drawn) [Example 9, 6-{4-[N′-(3,4-Dihydroxy-2-nitro-benzylidene)-hydrazino]-phenyl}-5-methyl-4,5-dihydro-2H-pyridazin-3-one], the melting point fell in the range of 239 to 241 °C.

`CC1CC(=O)NN=C1c1ccc(C(=NN)c2ccccc2C(=O)O)cc1` (stereo not drawn) [Example 10, 2-{[4-(4-Methyl-6-oxo-1,4,5,6-tetrahydro-pyridazin-3-yl)-phenyl]-hydrazonomethyl}-benzoic acid] came in with a melting point of 250 to 251 °C.

As for `CC1CC(=O)NN=C1c1ccc(NN=Cc2ccccc2C(F)(F)F)cc1` (stereo not drawn) [Example 11, 6-{4-[N′-(2-trifluoromethyl-benzylidene)-hydrazino]-phenyl}-5-methyl-4,5-dihydro-2H-pyridazin-3-one], the melting point is 113 to 115 °C.

`COc1c(OC(C)=O)ccc(C(=NN)c2ccc(C3=NNC(=O)CC3C)cc2)c1[N+](=O)[O-]` (stereo not drawn) [Example 12, Acetic acid 2-Methoxy-4-{[4-(4-methyl-6-oxo-1,4,5,6-tetrahydro-pyridazin-3-yl)-phenyl]-hydrazonomethyl}-3-nitro-phenyl ester] gave a melting point of 220 to 223 °C.

`CC(=NNc1ccc(C2=NNC(=O)CC2C)cc1)c1cc(O)cc(O)c1` (stereo not drawn) [Example 13, 6-(4-{N′-[1-(3,5-Dihydroxy-phenyl)-ethylidene]-hydrazino}-phenyl)-5-methyl-4,5-dihydro-2H-pyridazin-3-one]: the melting point is 162 to 166 °C.

`COc1ccc(CCC(=NNc2ccc(C3=NNC(=O)CC3C)cc2)c2ccc(O)cc2O)cc1OC` (stereo not drawn) [Example 14, 6-(4-{N′-[1-(2,4-Dihydroxy-phenyl)-3-(3,4-dimethoxy-phenyl)-propylidene]-hydrazino}-phenyl)-5-methyl-4,5-dihydro-2H-pyridazin-3-one] had a melting point of 135 to 140 °C.

`O=c1[nH]nc(-c2ccc(NN=C(c3ccccc3)c3ccc(O)cc3O)cc2)c2ccccc12` [Example 15, 4-(4-{N′-[(2,4-Dihydroxy-phenyl)-phenyl-methylene]-hydrazino}-phenyl)-2H-phthalazin-1-one] came in with a melting point of 160 to 170 °C.

`O=c1[nH]nc(-c2ccc(NN=C(c3ccc(O)cc3)c3ccc(O)cc3O)cc2)c2ccccc12` [Example 16, 4-(4-{N′-[(2,4-Dihydroxy-phenyl)-(4-hydroxy-phenyl)-methylene]-hydrazino}-phenyl)-2H-phthalazin-1-one]: the melting point was 150 to 160 °C.

For `O=c1[nH]nc(-c2ccc(NN=C(c3ccc(O)cc3O)c3ccc(O)cc3O)cc2)c2ccccc12` [Example 17, 4-(4-{N′-[Bis-(2,4-dihydroxy-phenyl)-methylene]-hydrazino}-phenyl)-2H-phthalazin-1-one], the melting point lay in the range of 140 to 146 °C.

Compound `O=c1[nH]nc(-c2ccc(NN=Cc3ccc(O)cc3O)cc2)c2ccccc12` [Example 18, 4-{4-[N′-(2,4-Dihydroxy-benzylidene)-hydrazino]-phenyl}-2H-phthalazin-1-one] registered a melting point of 278 to 283 °C.

Regarding `CC1CC(=O)NN=C1c1ccc(NN=Cc2ccc(S(C)(=O)=O)cc2)cc1` (stereo not drawn) [Example 19, 6-{4-[N′-(4-Methanesulfonylbenzylidene)hydrazino]phenyl}-5-methyl-4,5-dihydro-2H-pyridazin-3-one], the melting point was 130 to 137 °C.

The compound `CC1CC(=O)NN=C1c1ccc(C(=NN)c2cccc(C#N)c2)cc1` (stereo not drawn) [Example 20, 3-{[4-(4-Methyl-6-oxo-1,4,5,6-tetrahydropyridazin-3-yl)phenyl]-hydrazonomethyl}-benzonitrile] came in with a melting point of 220 to 224 °C.

`COc1c(O)ccc(C=NNc2ccc(-c3n[nH]c(=O)cc3C)cc2)c1[N+](=O)[O-]` [Example 22, 6-{4-[N′-(4-Hydroxy-3-methoxy-2-nitrobenzylidene)hydrazino]phenyl}-5-methyl-2H-pyridazin-3-one] showed a melting point of 264 to 268 °C.

In turn, `Cn1nc(-c2ccc(NN=Cc3ccc(O)cc3O)cc2)ccc1=O` [Example 25, 6-{4-[N′-(2,4-Dihydroxybenzylidene)hydrazino]phenyl}-2-methyl-2H-pyridazin-3-one] displayed a melting point of 304 to 306 °C.

Compound `CCC(=NNc1ccc(-c2ccc(=O)n(C)n2)cc1)c1ccc(O)cc1O` [Example 27, 6-{4-{N′-[1-(2,4-Dihydroxyphenyl)propylidene]hydrazino}phenyl}-2-methyl-2H-pyridazin-3-one] yielded a melting point of 225 to 233 °C.

`CCc1c(O)ccc(C=NNc2ccc(-c3ccc(=O)n(C)n3)cc2)c1O` [Example 28, 6-{4-[N′-(2,4-Dihydroxy-3-ethylbenzylidene)hydrazino]phenyl}-2-methyl-2H-pyridazin-3-one] returned a melting point of 262 to 266 °C.

`Cn1nc(-c2ccc(NN=C(CCC(=O)O)c3ccc(O)cc3O)cc2)ccc1=O` [Example 29, 4-(2,4-Dihydroxyphenyl)-4-{[4-(1-methyl-6-oxo-1,6-dihydropyridazin-3-yl)phenyl]hydrazono}butyric acid] had a melting point of 138 to 141 °C.

Turning to `CCC1CC(=O)NN=C1c1ccc(NN=Cc2ccc(O)cc2O)cc1` (stereo not drawn) [Example 36, 6-{4-[N′-(2,4-Dihydroxy-benzylidene)-hydrazino]-phenyl}-5-ethyl-4,5-dihydro-2H-pyridazin-3-one], the melting point fell in the range of 270 to 275 °C.

`CC(=O)c1c(O)ccc(C=NNc2ccc(C3=NNC(=O)CC3C)cc2)c1O` (stereo not drawn) [Example 39, 6-{4-[N′-(3-Acetyl-2,4-dihydroxy-benzylidene)-hydrazino]-phenyl}-5-methyl-4,5-dihydro-2H-pyridazin-3-one] came in with a melting point of 268 to 270 °C.

Compound `CC(=O)Nc1ccc(C(=NN)c2ccc(C3=NNC(=O)CC3C)cc2)c(O)c1` (stereo not drawn) [Example 41, N-(3-Hydroxy-4-{[4-(4-methyl-6-oxo-1,4,5,6-tetrahydro-pyridazin-3-yl)-phenyl]-hydrazonomethyl}-phenyl)-acetamide] showed a melting point of 269 to 275 °C.

Compound `CC1CC(=O)NN=C1c1ccc(NN=Cc2ccc(Cl)cc2Cl)cc1` (stereo not drawn) [Example 42, 6-{4-[N′-(2,4-Dichloro-benzylidene)-hydrazino]-phenyl}-5-methyl-4,5-dihydro-2H-pyridazin-3-one] showed a melting point of 252 to 254 °C.

`CCCCc1c(O)ccc(C=NNc2ccc(C3=NNC(=O)CC3C)cc2)c1O` (stereo not drawn) [Example 44, 6-{4-[N′-(3-Butyl-2,4-dihydroxy-benzylidene)-hydrazino]-phenyl}-5-methyl-4,5-dihydro-2H-pyridazin-3-one] registered a melting point of 218 °C.

`CC1CC(=O)NN=C1c1ccc(NN=Cc2ccc([N+](=O)[O-])cc2)cc1` (stereo not drawn) [Example 52, 6-{4-[N′-(4-nitrobenzylidene)-hydrazino]-phenyl}-5-methyl-4,5-dihydro-2H-pyridazin-3-one] returned a melting point of 216 to 217 °C.

As to `COc1ccccc1C=NNc1ccc(C2=NNC(=O)CC2C)cc1` (stereo not drawn) [Example 53, 6-{4-[N′-(2-Methoxy-benzylidene)-hydrazino]-phenyl}-5-methyl-4,5-dihydro-2H-pyridazin-3-one], the melting point lay in the range of 180 to 183 °C.

In turn, `CC1CC(=O)NN=C1c1ccc(NN=Cc2ccccc2O)cc1` (stereo not drawn) [Example 54, 6-{4-[N′-(2-Hydroxy-benzylidene)-hydrazino]-phenyl}-5-methyl-4,5-dihydro-2H-pyridazin-3-one] displayed a melting point of 265 to 268 °C.

In the case of `COc1ccc(C=NNc2ccc(C3=NNC(=O)CC3C)cc2)cc1` (stereo not drawn) [Example 55, 6-{4-[N′-(4-Methoxy-benzylidene)-hydrazino]-phenyl}-5-methyl-4,5-dihydro-2H-pyridazin-3-one], the melting point fell in the range of 172 to 174 °C.

For the compound `CC1CC(=O)NN=C1c1ccc(C(=NN)c2ccc(O)c(C(=O)O)c2O)cc1` (stereo not drawn) [Example 56, 2,6-Dihydroxy-3-{[4-(4-methyl-6-oxo-1,4,5,6-tetrahydro-pyridazin-3-yl)-phenyl]-hydrazonomethyl}-benzoic acid], the melting point is 215 to 218 °C.

`COc1cccc(C=NNc2ccc(C3=NNC(=O)CC3C)cc2)c1O` (stereo not drawn) [Example 57, 6-{4-[N′-(2-Hydroxy-3-methoxy-benzylidene)-hydrazino]-phenyl}-5-methyl-4,5-dihydro-2H-pyridazin-3-one] returned a melting point of 210 to 213 °C.

For the compound `CC1CC(=O)NN=C1c1ccc(NN=Cc2ccccc2[N+](=O)[O-])cc1` (stereo not drawn) [Example 58, 6-{4-[N′-(2-nitro-benzylidene)-hydrazino]-phenyl}-5-methyl-4,5-dihydro-2H-pyridazin-3-one], the melting point fell in the range of 250 to 253 °C.

`CC1CC(=O)NN=C1c1ccc(C(=NN)c2ccc(C#N)cc2)cc1` (stereo not drawn) [Example 60, 4-{[4-(4-Methyl-6-oxo-1,4,5,6-tetrahydro-pyridazin-3-yl)-phenyl]-hydrazonomethyl}-benzonitrile] yielded a melting point of 246 to 248 °C.
